According to patent publication US20240321457A1, “SYSTEMS FOR AND METHODS OF TREATMENT SELECTION” (THE REGENTS OF THE UNIVERSITY OF CALIFORNIA, priority 2020, published 2024):
Each block holds one compound with its values, some of them ahead of it.

Experiments:
[1] = tested on: solid tumors with FGFR mRNA overexpression; conditions: phase I trials; cited from earlier work
Gαi = assay: NanoBiT Gαi1 dissociation assay (split luciferase); assay type: cell-based; conditions: 60 minutes
Procedure: The NanoBiT G-protein dissociation assay, based on a split-luciferase system, was performed as previously described with some modifications (Inoue et al., 2019). All DNA constructs were provided by Dr. Asuka Inoue (Tohoku University, Japan). NanoBiT plasmids (pCAGGS) include Gαi1-LgBiT, Gβ1-native, and SmBiT-Gγ2 (CAAX C68S mutant). Gαi-DREADD (pcDNA3.1) was used as a synthetic Gαi-coupled GPCR. Briefly, CAL-33 and HET-1A cells were seeded on poly-D-lysine coated (Sigma, Cat #P7280), opaque, white 96-well plates (Falcon Cat #353296). The following day cells were transfected with NanoBiT and receptor plasmids using Lipofectamine 3000 (ThermoFisher Scientific, Cat #L3000008) according to manufacturer recommendations for a 12-well scale (10 μL transfection mix to each well). The NanoBiT plasmids were mixed at a ratio of 100 ng Gαi1-LgBiT, 500 ng Gβ1, 500 ng SmBiT-Gγ2, and 200 ng of receptor if needed. For gene knockdown experiments, 10 pmol of pooled siControl (Dharmacon, Cat #D-001810-10-20), siFGFR3 (Mission siRNA, Cat #SIHK0780, SIHK0781, SIHK0782), or siDaple (Dharmacon, Cat #L-033364-01-0005) was included in the plasmid mix. Media was changed the following day. Two days after transfection, media was aspirated from each well and washed once with HBSS. Cells were incubated in HBSS with a final concentration of 5 μM native coelenterazine (Biotium, Cat #10110-1) for 30 minutes at room temperature protected from light. Basal luminescence was read and ligand prepared for final concentrations of 10 ng/mL human bFGF (Roche Cat #11123149001) and 10 μM clozapine-N-oxide (Cayman Chemical, Cat #NC1044836). After ligand addition, luminescence was read in kinetic loops (each well ˜every 30 seconds) for 60 minutes total (Tecan Spark). Raw luminescent values were normalized to the corresponding basal value for each well and subsequently to the mean vehicle ratio (raw/basal) at time 0. Significance was calculated using a one-way ANOVA at the 60 minute time point.
To test this idea, a split luciferase assay (Gαi NanoBiT) was used, in which signal is lost upon activation of Gαi and dissociation from Gβγ (FIG. 15C and FIG. 16A). As a control, an engineered Designer Receptor Exclusively Activated by Designer Drugs (DREADD) receptor was first transfected, and the resulting cell population stimulated with the DREADD ligand, clozapine-N-oxide (CNO).
Referring to FIG. 15C, NanoBiT biosensor measures Gαi activation through dissociation of the luciferase split between Gα and Gβγ. CNO mediates canonical GPCR signaling through the synthetic Gαi-coupled DREADD receptor. FGF mediates HNSCC-specific signaling through FGFR3 and Daple.

ERK phosphorylation = ERK phosphorylation immunoblot after FGF stimulation; assay type: cell-based; conditions: FGF 10 ng/mL, time course
Procedure: (§1) CAL-33 and HET-1A cells were seeded on poly-D-lysine-coated 6-well plates. Cells were transfected with siRNA using Lipofectamine RNAiMAX (Thermo Fisher Scientific, Cat #100014472) according to manufacturer recommendations. After overnight serum starvation, cells were stimulated with vehicle, 10 ng/mL bFGF, or 10 μM CNO. Cells were washed once with PBS and lysed in RIPA buffer (50 mM Tris-HCl pH 6.8, 150 mM NaCl, 1% NP-40, 0.5% sodium deoxycholate, 0.1% SDS) with protease and phosphatase inhibitors (Bimake, Cat #B14001, B15001-A/B). Lysates were briefly sonicated and cleared by centrifugation before boiling in Laemmli sample buffer (Bio-Rad Cat #1610747). After separation on 10% acrylamide gels and transfer to PVDF membranes, membranes were blocked with 2% BSA in TBST before incubating with antibodies. […]
Referring to FIG. 16C, ERK phosphorylation over a time course was measured by immunoblotting in CAL-33 and HET-1A cells stimulated with FGF (10 ng/mL).

PAK1/2 phosphorylation = PAK1/2 phosphorylation immunoblot after FGF stimulation; assay type: cell-based; conditions: FGF stimulation 0, 5, 10, 30, 60 minutes
Procedure: as §1
Referring to FIG. 15G, PAK1/2 autophosphorylation was measured by immunoblot analysis over a time course of FGF stimulation (0, 5, 10, 30, 60 minutes) in CAL-33 and HET-1A cells.

CAL-33 cells = assay: Scratch migration assay; assay type: cell-based; conditions: fibronectin-plated CAL-33 cells; 10 ng/mL bFGF, 24 hours; versus vehicle
Procedure: CAL-33 cells were seeded on 12-well plates coated with 10 μg/mL fibronectin in PBS (Sigma Aldrich, Cat #F2006-1MG). Once cells reached confluence, a vertical scratch was made with a pipette tip and washed well with PBS before adding serum-free media. Cells were stimulated with vehicle, 10 ng/mL bFGF, or 1% serum for 24 hours. Images were taken at the 0 and 24 hour time points (2× magnification) and the scratch area was quantified using ImageJ. Percent scratch closure was calculated for each well and significance assessed using a one-way ANOVA.
Referring to FIG. 15H, a vertical scratch was introduced to fibronectin-plated CAL-33 cells. Images were taken at 0 and 24 hours after FGF stimulation (scale bar=200 μm). (I) Quantification of replicate scratch closure assays from panel H (*P<0.05 when compared with the vehicle-treated group).

Compound: COCc1c(-c2cc3cc(C)cc(OC)c3s2)c2c(N)ncnn2c1CN1CCNC(=O)C1 [rogaratinib]
objective response rate [1]: 67%

Gαi activation (loss of luciferase signal) (Gαi; CAL-33 cells expressing Gαi NanoBiT and DREADD receptor, CNO 10 μM): Robust Gαi activation
Gαi activation (loss of luciferase signal) (Gαi; HET-1A cells expressing Gαi NanoBiT and DREADD receptor, CNO 10 μM): Robust Gαi activation
Compound: C[N+]1([O-])CCN(C2=Nc3cc(Cl)ccc3Nc3ccccc32)CC1 [CNO, clozapine-N-oxide]

Gαi activation (loss of luciferase signal) (Gαi; CAL-33 cells, Gαi NanoBiT, FGF 10 ng/mL): induce Gαi activation
Gαi activation (loss of luciferase signal) (Gαi; HET-1A cells, Gαi NanoBiT, FGF 10 ng/mL): no such activation occurred
Compound: FGF: human bFGF (Roche), fibroblast growth factor used as ligand for stimulation
ERK phosphorylation (ERK phosphorylation; CAL-33 cells): rapidly induced ERK phosphorylation
ERK phosphorylation (ERK phosphorylation; HET-1A cells): rapidly induced ERK phosphorylation
phosphorylation of PAK1/2 (PAK1/2 phosphorylation; CAL-33 cells): results in downstream phosphorylation of PAK1/2
phosphorylation of PAK1/2 (PAK1/2 phosphorylation; HET-1A cells): not observed
cell migration (scratch closure) (CAL-33 cells): statistically significant increase
